Data on three compounds can be found in ChEMBL document CHEMBL1201862, “PubChem BioAssay data set” (2004).

A word on the IC50: it is the concentration that inhibits the measured activity by half.

The source made the active and inactive calls. Cut-off read from the data, not from the text of the source: actives have a measured IC50 and inactives only a lower limit.

Envelope glycoprotein gp160, sequence (Q6QLK5 whole entry, the tested form may be a part): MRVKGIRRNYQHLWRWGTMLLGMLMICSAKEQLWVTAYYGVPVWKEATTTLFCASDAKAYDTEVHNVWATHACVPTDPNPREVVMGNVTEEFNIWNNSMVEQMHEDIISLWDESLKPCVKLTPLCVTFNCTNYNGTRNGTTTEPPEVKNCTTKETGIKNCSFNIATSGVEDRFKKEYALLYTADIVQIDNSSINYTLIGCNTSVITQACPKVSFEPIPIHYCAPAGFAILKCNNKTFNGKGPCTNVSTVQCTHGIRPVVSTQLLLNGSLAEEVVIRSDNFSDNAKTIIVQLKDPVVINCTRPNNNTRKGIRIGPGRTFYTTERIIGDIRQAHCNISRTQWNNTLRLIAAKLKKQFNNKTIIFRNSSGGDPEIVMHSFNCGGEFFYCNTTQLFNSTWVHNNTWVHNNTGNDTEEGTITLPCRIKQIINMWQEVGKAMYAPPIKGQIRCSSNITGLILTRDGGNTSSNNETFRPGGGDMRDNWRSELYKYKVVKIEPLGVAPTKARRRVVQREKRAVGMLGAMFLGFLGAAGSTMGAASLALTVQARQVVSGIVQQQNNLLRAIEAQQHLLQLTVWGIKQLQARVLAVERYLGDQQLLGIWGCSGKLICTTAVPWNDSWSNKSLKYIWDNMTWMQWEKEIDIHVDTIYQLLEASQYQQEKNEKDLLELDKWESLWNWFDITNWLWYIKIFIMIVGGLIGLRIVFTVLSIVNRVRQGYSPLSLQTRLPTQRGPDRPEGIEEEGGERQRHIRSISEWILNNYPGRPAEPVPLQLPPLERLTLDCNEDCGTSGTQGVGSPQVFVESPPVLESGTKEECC

The experiment has as its target Envelope glycoprotein gp160 (Human immunodeficiency virus 1, UniProt Q6QLK5). The experiment is described as follows: inhibitors of HIV fusion peptide binding, primary screen, biochemical, uHTS, fluorescence dequenching (AID 1986).
As for `Cc1ccc(-c2cc(C(=O)Nc3ccc(S(=O)(=O)Nc4onc(C)c4C)cc3)c3ccccc3n2)cc1`, the half-maximal inhibitory concentration (IC50) was 18.1 µM (active). Consider `O=C(O)c1cc(NN=C2c3ccccc3-c3ccccc32)ccc1Cl`, for which the half-inhibitory concentration (IC50) is 23.7 µM (active).

`CCOc1cc(/C=C2\SC(=S)N(C(C(=O)O)c3ccccc3)C2=O)ccc1O` (stereo not drawn): the half-inhibitory concentration (IC50) is 22.6 µM (active).
